From US20250019386A1, “PYRROLO[1,2-b]-2-PYRIDAZINONE COMPOUNDS AS 5-HT4 RECEPTOR AGONISTS” (SUVEN LIFE SCIENCES LIMITED, priority 2022, published 2025)

Legend:
5-HT4 receptors [1] = molecular target: T1, 5-HT4 receptors (Homo sapiens (Human), UniProt Q13639); experiment: Determination of EC50 values for 5-HT4 receptor (pCRE-Luc reporter assay); assay type: cell-based; conditions: CHO cells expressing recombinant human 5-HT4 receptor and pCRE-Luc reporter; 4 h incubation; luciferase activity
Protocol: A stable CHO cell line expressing recombinant human 5-HT4 receptor and pCRE-Luc reporter system was used for cell-based assay. The assay offers a non-radioactive based approach to determine binding of a compound to GPCRs. In this specific assay, the level of intracellular cyclic AMP, which is modulated by activation, or inhibition of the receptor is measured. The recombinant cells harbor luciferase reporter gene under the control of cAMP response element.
The above cells were grown in 96 well clear bottom white plates in Ham's F12 medium containing 10% fetal bovine serum. Prior to the addition of compounds or standard agonist, cells were serum starved overnight. Increasing concentrations of test compounds were added to the cells in OptiMEM medium. The incubation was continued in CO2 incubator at 37° C. with 5% CO2 conditions for 4 h. Medium was removed and cells were washed with phosphate buffered saline. The cells were lysed and luciferase activity was measured in a Luminometer. Concentration-response data was generated using the luciferase assay, following incubation of cells with receptor ligands, were analyzed by subtracting basal levels (i.e. with medium alone), then normalizing values as a percentage of controls (endogenous agonist serotonin (10 μM)). […] EC50 values of the compounds were defined as the concentration required in stimulating the luciferase activity by 50%.

[2] = Rat brain penetration study; assay type: in vivo; conditions: brain/plasma, oral (gavage) 3 mg/kg, male Wistar rats, brain concentrations below LLOQ taken as zero, read-out: Single dose Brain Penetration (Cb/Cp)
Protocol: Male Wistar rats (225±25 g) were used as experimental animals. Three animals were housed in each cage. Animals were given water and food ad libitum throughout the experiment and maintained on a 12 h light/dark cycle.
Brain penetration was determined in discrete manner in rats. One day prior to dosing day, male Wistar rats were acclimatized. After acclimatization, the rats were grouped according to their weight. In each group, 3 animals were kept in individual cages and allowed free access to food and water. At each time point (0.5, 1, and 2 h) n=3 animals were used.
The compounds of formula (I) were suitably preformulated and administered orally at (free base equivalent) 3 mg/kg. Blood samples were collected via, cardiac puncture by using isoflurane anesthesia. The animals were sacrificed to collect brain tissue. Plasma was separated and brain samples were homogenized and stored frozen at −20° C. until analysis.
The concentrations of the compounds of formula (I) were quantified in plasma and brain homogenate by qualified LC-MS/MS method using a suitable extraction technique. The compounds of formula (I) were quantified in the calibration range of 1-2000 ng/mL in plasma and brain homogenate. Study samples were analyzed using calibration samples in the batch and quality control samples spread across the batch. Extent of brain-plasma ratio was calculated (Cb/Cp). Brain concentrations were found below LLOQ and a value of zero was considered for calculation purposes.

[3] = Rat pharmacokinetic study; assay type: in vivo; conditions: male Wistar rats, plasma; for bioavailability: oral 3 mg/kg vs intravenous 1 mg/kg
Protocol: Male Wistar rats (250±50 g) were used as experimental animals. Animals were housed individually in polypropylene cages. Two days prior to study, rats were anesthetized with isoflurane for surgical placement of jugular vein catheter. Rats were randomly divided for oral (3 mg/kg and 10 mL/kg as dose volume) and intravenous (1 mg/kg and 2 mL/kg as dose volume) dosing (n=3/group) and fasted overnight before oral dosing (p.o.). However, rats allocated to intravenous dosing food and water was provided ad libitum.
Intravenous formulation was prepared by using water for injection as vehicle. For Oral, formulation was prepared by using reagent grade water as vehicle. The dose formulations were prepared freshly on the day of dosing.
After dosing of animal, each time point a 200 μL of blood sample was collected through jugular vein and replenished with an equivalent volume of normal saline. The collected blood sample was transferred into a labeled eppendorf tube containing 10 μL of sodium heparin (1000 IU/mL) as an anticoagulant. Typically blood samples were collected at following time points: 0.08, 0.25, 0.5, 1, 2, 4, 6, 8, and 24 h post dose. Blood was centrifuged at 4000 rpm for 10 min. Plasma was separated and stored frozen at −80° C. until analysis. The concentrations of the test compounds were quantified in plasma by qualified LC-MS/MS method using a suitable extraction technique. The test compounds were quantified in the calibration range around 1-2000 ng/mL in plasma. Study samples were analyzed using calibration samples in the batch and quality control samples spread across the batch.
Pharmacokinetic parameters Cmax, AUCt, t1/2 and bioavailability were calculated by non-compartmental model using standard non-compartmental model by using Phoenix WinNonlin 6.4 version Software.

hERG potassium channels = hERG potassium channels (Homo sapiens (Human), UniProt Q12809); conditions: background statement; cited from earlier work
5-HT4 receptors [4] = molecular target: T1, 5-HT4 receptors; conditions: background statement; cited from earlier work
gastric emptying = experiment: Effect on gastric emptying in Beagle dogs (clonidine model of gastroparesis); assay type: in vivo; conditions: 10 mg/kg oral, clonidine-treated beagle dogs
Protocol: Six beagle dogs were used for the study in a crossover manner such that all 6 dogs received all the treatments. Each dog was placed in an individual cage after overnight fasting and water removed. To provide a model of gastroparesis, clonidine (α2 adrenergic agonist) at a dose of 10 μg/kg was injected subcutaneously 30 min before test meal administration.
Dogs were orally administered test compound of example 2 at 1, 3 and 10 mg/kg or vehicle or cisapride at 10 mg/kg immediately before the administration of clonidine. The test meal (10 mL/kg), made up of commercially available semi-solid food with 10 mg/kg of acetaminophen (APAP), was provided 30 min after clonidine injection. Blood samples were collected from cephalic vein at 0, 0.25, 0.5, 0.75, 1.0, 1.25, 1.5 & 2.0 h after test meal administration and then plasma was separated by centrifugation. Plasma concentrations of APAP were determined by in-house methods using LC-MS/MS.

T1 sequence (Q13639 whole entry): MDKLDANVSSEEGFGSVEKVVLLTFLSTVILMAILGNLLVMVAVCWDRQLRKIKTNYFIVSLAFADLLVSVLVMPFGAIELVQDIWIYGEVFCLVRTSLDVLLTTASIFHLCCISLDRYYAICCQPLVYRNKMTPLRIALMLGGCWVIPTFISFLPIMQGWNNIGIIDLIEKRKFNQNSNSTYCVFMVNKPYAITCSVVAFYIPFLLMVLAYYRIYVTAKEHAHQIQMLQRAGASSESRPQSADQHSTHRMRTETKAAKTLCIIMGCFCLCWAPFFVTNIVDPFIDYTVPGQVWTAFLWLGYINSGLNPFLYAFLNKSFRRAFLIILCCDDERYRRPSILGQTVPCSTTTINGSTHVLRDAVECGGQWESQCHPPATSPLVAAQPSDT
hERG potassium channels, sequence (Q12809 whole entry): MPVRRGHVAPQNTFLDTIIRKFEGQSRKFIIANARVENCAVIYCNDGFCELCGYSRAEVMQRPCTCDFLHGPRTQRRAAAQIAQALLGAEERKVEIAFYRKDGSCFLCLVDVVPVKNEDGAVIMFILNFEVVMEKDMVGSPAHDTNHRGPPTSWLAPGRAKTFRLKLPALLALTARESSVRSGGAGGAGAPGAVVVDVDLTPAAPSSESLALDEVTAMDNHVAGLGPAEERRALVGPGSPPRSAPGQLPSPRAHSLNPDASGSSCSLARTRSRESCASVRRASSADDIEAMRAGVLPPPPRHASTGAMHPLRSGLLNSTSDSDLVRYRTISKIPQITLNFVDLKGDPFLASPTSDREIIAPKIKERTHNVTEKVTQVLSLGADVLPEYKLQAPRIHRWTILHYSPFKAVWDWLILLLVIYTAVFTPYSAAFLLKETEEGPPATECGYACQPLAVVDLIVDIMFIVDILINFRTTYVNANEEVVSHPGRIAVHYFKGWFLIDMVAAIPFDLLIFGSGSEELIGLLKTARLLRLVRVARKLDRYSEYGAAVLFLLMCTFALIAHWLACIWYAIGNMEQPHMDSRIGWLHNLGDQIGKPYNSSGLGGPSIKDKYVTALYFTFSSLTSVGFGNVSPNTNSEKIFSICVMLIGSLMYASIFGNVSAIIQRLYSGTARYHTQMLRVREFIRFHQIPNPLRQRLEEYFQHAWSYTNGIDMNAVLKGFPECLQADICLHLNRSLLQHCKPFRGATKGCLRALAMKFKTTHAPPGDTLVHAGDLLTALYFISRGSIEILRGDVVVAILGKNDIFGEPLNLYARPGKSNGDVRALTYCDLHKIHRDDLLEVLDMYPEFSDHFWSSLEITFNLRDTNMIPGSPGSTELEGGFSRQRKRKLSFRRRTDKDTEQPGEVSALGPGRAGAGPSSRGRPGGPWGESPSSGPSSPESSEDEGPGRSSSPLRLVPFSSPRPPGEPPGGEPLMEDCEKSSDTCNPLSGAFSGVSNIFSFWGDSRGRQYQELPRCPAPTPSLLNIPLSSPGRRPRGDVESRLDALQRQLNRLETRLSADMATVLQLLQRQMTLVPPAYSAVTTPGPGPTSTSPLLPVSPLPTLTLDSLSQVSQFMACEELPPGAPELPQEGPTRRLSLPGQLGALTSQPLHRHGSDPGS

CC(C)n1c(=O)c(C(=O)NC2CC3CCC(C2)N3C[C@H](O)CN(C)S(C)(=O)=O)cc2cccn21.O=C(O)C(O)C(O)C(=O)O (single isomer, unassigned) [Example 4]
EC50 (5-HT4 receptors [1]): 10 nM
Kp [2]: 0
AUC(0-t) ([3]; intravenous (bolus), 1 mg/kg): 124 ± 7.9 ng·h/mL
half-life ([3]; intravenous (bolus), 1 mg/kg): 1.7 ± 0.3 h
AUC(0-t) ([3]; oral (gavage), 3 mg/kg): 44 ± 22 ng·h/mL
Cmax ([3]; oral (gavage), 3 mg/kg): 11 ± 6.6 ng/mL
bioavailability [3]: 12 ± 5.9%

[H]/N=C(/NCCCCC)N/N=C/c1c[nH]c2ccc(OC)cc12 [tegaserod]
interaction with hERG potassium channels (hERG potassium channels): potent interaction
selectivity for 5-HT4 receptors (5-HT4 receptors [4]): poor selectivity

COC(=O)NCCCN1C2CCC1CC(NC(=O)c1cc3cccn3n(C(C)C)c1=O)C2.O=C(O)C(O)C(O)C(=O)O [Example 34, N-{8-[3-Carbomethoxyaminopropyl]-8-azabicyclo[3.2.1]oct-3-yl} [1-isopropyl-2-oxo-1,2-dihydro pyrrolo[1,2-b]pyridazin]-3-carboxamide L-(+)-tartrate]
EC50 (5-HT4 receptors [1]): 18 nM
Kp [2]: 0
AUC(0-t) ([3]; intravenous (bolus), 1 mg/kg): 119 ± 16 ng·h/mL
half-life ([3]; intravenous (bolus), 1 mg/kg): 1.3 ± 0.3 h
AUC(0-t) ([3]; oral (gavage), 3 mg/kg): 274 ± 74 ng·h/mL
Cmax ([3]; oral (gavage), 3 mg/kg): 174 ± 49 ng/mL
bioavailability [3]: 77 ± 21%

CC(C)n1c(=O)c(C(=O)NC2CC3CCC(C2)N3CCNS(C)(=O)=O)cc2cccn21.O=C(O)C(O)C(O)C(=O)O [Example 28, N-{8-[2-Methanesulfonylaminoethyl]-8-azabicyclo[3.2.1]oct-3-yl} [1-isopropyl-2-oxo-1,2-dihydro pyrrolo[1,2-b]pyridazin]-3-carboxamide L-(+)-tartrate]
EC50 (5-HT4 receptors [1]): 12 nM
Kp [2]: 0
AUC(0-t) ([3]; intravenous (bolus), 1 mg/kg): 146 ± 39 ng·h/mL
half-life ([3]; intravenous (bolus), 1 mg/kg): 1.3 ± 0.2 h
AUC(0-t) ([3]; oral (gavage), 3 mg/kg): 189 ± 26 ng·h/mL
Cmax ([3]; oral (gavage), 3 mg/kg): 83 ± 51 ng/mL
bioavailability [3]: 43 ± 6%

COc1cc(N)c(Cl)cc1C(=O)NC1CCN(CCCOc2ccc(F)cc2)CC1OC (stereo not drawn) [cisapride]
interaction with hERG potassium channels (hERG potassium channels): potent interaction
selectivity for 5-HT4 receptors (5-HT4 receptors [4]): poor selectivity
speed of gastric emptying (gastric emptying): restored speed of gastric emptying

CC(C)n1c(=O)c(C(=O)NC2CC3CCC(C2)N3CCCN(C)S(C)(=O)=O)cc2cccn21 (stereo not drawn) [Example 22, N-{8-[3-[(N-Methyl)methanesulfonamido]propyl]-8-azabicyclo[3.2.1]oct-3-yl} [1-isopropyl-2-oxo-1,2-dihydro pyrrolo[1,2-b]pyridazine]-3-carboxamide]
EC50 (5-HT4 receptors [1]): 58 nM

COC(=O)NCCN1C2CCC1CC(NC(=O)c1cc3cccn3n(C(C)C)c1=O)C2 (stereo not drawn) [Example 35, N-{8-[2-Carbomethoxyaminomethyl]-8-azabicyclo[3.2.1]oct-3-yl} [1-isopropyl-2-oxo-1,2-dihydro pyrrolo[1,2-b]pyridazin]-3-carboxamide]
EC50 (5-HT4 receptors [1]): 12 nM

CC(C)n1c(=O)c(C(=O)NC2CC3CCC(C2)N3CCCNS(=O)(=O)C(C)C)cc2cccn21 (stereo not drawn) [Example 25, N-{8-[3-Isopropylsulfonylaminopropyl]-8-azabicyclo[3.2.1]oct-3-yl} [1-isopropyl-2-oxo-1,2-dihydro pyrrolo[1,2-b]pyridazin]-3-carboxamide]
EC50 (5-HT4 receptors [1]): 13 nM

CC(C)n1c(=O)c(C(=O)NC2CC3CCC(C2)N3CC(O)CN(C)S(C)(=O)=O)cc2cccn21 (racemic) [Example 6, Racemic-N-{8-[2-Hydroxy-3-[(N-methyl)methanesulfonamido]propyl]-8-azabicyclo[3.2.1]oct-3-yl} [1-isopropyl-2-oxo-1,2-dihydro pyrrolo[1,2-b]pyridazine]-3-carboxamide L(+)-tartarate]
EC50 (5-HT4 receptors [1]): 3.3 nM

CC(C)n1c(=O)c(C(=O)NC2CC3CCC(C2)N3C[C@@H](O)CN(C)S(C)(=O)=O)cc2cccn21 (single isomer, unassigned) [Example 1]
EC50 (5-HT4 receptors [1]): 2 nM

CC(=O)N(C)C[C@H](O)CN1C2CCC1CC(NC(=O)c1cc3cccn3n(C(C)C)c1=O)C2 (stereo partly drawn) [Example 15, (R)-N-{8-[2-Hydroxy-3-[(N-methyl)acetamido]propyl]-8-azabicyclo[3.2.1]oct-3-yl} [1-isopropyl-2-oxo-1,2-dihydro pyrrolo[1,2-b]pyridazine]-3-carboxamide]
EC50 (5-HT4 receptors [1]): 8 nM

CC(C)n1c(=O)c(C(=O)NC2CC3CCC(C2)N3C[C@@H](O)CN(C)S(C)(=O)=O)c(O)c2cccn21 (stereo partly drawn) [Example 7, (R)-N-{8-[2-Hydroxy-3-[(N-methyl)methanesulfonamido]propyl]-8-azabicyclo[3.2.1]oct-3-yl} [4-hydroxy-1-isopropyl-2-oxo-1,2-dihydro pyrrolo[1,2-b]pyridazine]-3-carboxamide]
EC50 (5-HT4 receptors [1]): 10.1 nM
